Values belong to the molecule of their own block, whether it stands above or below them.
System: 997726-040-R-J2-PDC tumor spheroids, viability
Assay: Anticancer human tumor 997726-040-R-J2-PDC patient-derived squamous cell lung carcinoma cell line growth inhibition [PI3K]
Conditions: spheroids with HUVEC and MSC; for IC50: curve of first compound; for viability, T/C: stronger effect = lower value
In short: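 Spheroid viability read-out. Co-cultures contained the tumor line plus HUVEC and human MSCs. Each agent was paired with a PI3K inhibitor (inavolisib, alpelisib, duvelisib, copanlisib) across half-log dilutions starting at clinical Cmax, or at 10 microM when Cmax was unknown.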

[1] = second compound 0.0316 µM, first compound 0.0316 µM
[2] = second compound 0.0316 µM, first compound 0.1 µM
[3] = second compound 0.0316 µM, first compound 0.316 µM
[4] = second compound 0.0316 µM, first compound 1 µM
[5] = second compound 0.0316 µM, first compound 3.16 µM
[6] = second compound 0.0316 µM, first compound 10 µM
[7] = second compound 0.1 µM, first compound 0.0316 µM
[8] = second compound 0.1 µM, first compound 0.1 µM
[9] = second compound 0.1 µM, first compound 0.316 µM
[10] = second compound 0.1 µM, first compound 1 µM
[11] = second compound 0.1 µM, first compound 3.16 µM
[12] = second compound 0.1 µM, first compound 10 µM
[13] = second compound 0.316 µM, first compound 0.0316 µM
[14] = second compound 0.316 µM, first compound 0.1 µM
[15] = second compound 0.316 µM, first compound 0.316 µM
[16] = second compound 0.316 µM, first compound 1 µM
[17] = second compound 0.316 µM, first compound 3.16 µM
[18] = second compound 0.316 µM, first compound 10 µM
[19] = second compound 1 µM, first compound 0.0316 µM
[20] = second compound 1 µM, first compound 0.1 µM
[21] = second compound 1 µM, first compound 0.316 µM
[22] = second compound 1 µM, first compound 1 µM
[23] = second compound 1 µM, first compound 3.16 µM
[24] = second compound 1 µM, first compound 10 µM
[25] = second compound 3.16 µM, first compound 0.0316 µM
[26] = second compound 3.16 µM, first compound 0.1 µM
[27] = second compound 3.16 µM, first compound 0.316 µM
[28] = second compound 3.16 µM, first compound 1 µM
[29] = second compound 3.16 µM, first compound 3.16 µM
[30] = second compound 3.16 µM, first compound 10 µM
[31] = second compound 10 µM, first compound 0.0316 µM
[32] = second compound 10 µM, first compound 0.1 µM
[33] = second compound 10 µM, first compound 0.316 µM
[34] = second compound 10 µM, first compound 1 µM
[35] = second compound 10 µM, first compound 3.16 µM
[36] = second compound 10 µM, first compound 10 µM
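Further: spheroids exposed to compounds for seven days before readout.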

Compound: C#Cc1c(F)ccc2cc(O)cc(-c3ncc4c(N5CC6CCC(C5)N6)nc(OCC56CCCN5CC(F)C6)nc4c3F)c12 (stereo not given) + Cc1nc(NC(=O)N2CCCC2C(N)=O)sc1-c1ccnc(C(C)(C)C(F)(F)F)c1
IC50 (second compound 0.0316 µM): > 10000 nM
IC50 (second compound 0.1 µM): > 10000 nM
IC50 (second compound 0.316 µM): 220 nM
IC50 (second compound 1 µM): < 31.6 nM
IC50 (second compound 3.16 µM): < 31.6 nM
IC50 (second compound 10 µM): < 31.6 nM
viability, T/C [1]: 89.9%
viability, T/C [2]: 88.9%
viability, T/C [3]: 84%
viability, T/C [4]: 81.3%
viability, T/C [5]: 77.9%
viability, T/C [6]: 75.5%
viability, T/C [7]: 77.4%
viability, T/C [8]: 71.4%
viability, T/C [9]: 74.6%
viability, T/C [10]: 79.8%
viability, T/C [11]: 60.9%
viability, T/C [12]: 55%
viability, T/C [13]: 59.6%
viability, T/C [14]: 51.2%
viability, T/C [15]: 51%
viability, T/C [16]: 44.3%
viability, T/C [17]: 42.9%
viability, T/C [18]: 41.9%
viability, T/C [19]: 41.4%
viability, T/C [20]: 39.5%
viability, T/C [21]: 41.7%
viability, T/C [22]: 40.3%
viability, T/C [23]: 40.3%
viability, T/C [24]: 30%
viability, T/C [25]: 30.8%
viability, T/C [26]: 27.2%
viability, T/C [27]: 31.2%
viability, T/C [28]: 28.5%
viability, T/C [29]: 30.5%
viability, T/C [30]: 21.9%
viability, T/C [31]: 15.8%
viability, T/C [32]: 17.6%
viability, T/C [33]: 13.4%
viability, T/C [34]: 17.6%
viability, T/C [35]: 14.1%
viability, T/C [36]: 15.8%

Compound: C=CC(=O)N1CCN(c2nc(=O)n(-c3c(C)ccnc3C(C)C)c3nc(-c4c(O)cccc4F)c(F)cc23)C(C)C1 (stereo not given) + Cc1nc(NC(=O)N2CCCC2C(N)=O)sc1-c1ccnc(C(C)(C)C(F)(F)F)c1
IC50 (second compound 0.0316 µM): > 10000 nM
IC50 (second compound 0.1 µM): > 10000 nM
IC50 (second compound 0.316 µM): > 10000 nM
IC50 (second compound 1 µM): < 31.6 nM
IC50 (second compound 3.16 µM): < 31.6 nM
IC50 (second compound 10 µM): < 31.6 nM
viability, T/C [1]: 82.8%
viability, T/C [2]: 84.3%
viability, T/C [3]: 101%
viability, T/C [4]: 108%
viability, T/C [5]: 102%
viability, T/C [6]: 109%
viability, T/C [7]: 76.3%
viability, T/C [8]: 72.7%
viability, T/C [9]: 71.1%
viability, T/C [10]: 86.8%
viability, T/C [11]: 101%
viability, T/C [12]: 89.3%
viability, T/C [13]: 53.3%
viability, T/C [14]: 55.9%
viability, T/C [15]: 61%
viability, T/C [16]: 59.5%
viability, T/C [17]: 63.6%
viability, T/C [18]: 65.6%
viability, T/C [19]: 40.8%
viability, T/C [20]: 41.8%
viability, T/C [21]: 45%
viability, T/C [22]: 39.8%
viability, T/C [23]: 52%
viability, T/C [24]: 46.2%
viability, T/C [25]: 30.9%
viability, T/C [26]: 28.6%
viability, T/C [27]: 33.6%
viability, T/C [28]: 28.6%
viability, T/C [29]: 34.1%
viability, T/C [30]: 32.2%
viability, T/C [31]: 16.2%
viability, T/C [32]: 16%
viability, T/C [33]: 15.9%
viability, T/C [34]: 17.4%
viability, T/C [35]: 22%
viability, T/C [36]: 9.67%

Compound: CC(Cn1ccc(-c2ccc(C#N)c(Cl)c2)n1)NC(=O)c1cc(C(C)O)[nH]n1 (stereo not given) + Cc1nc(NC(=O)N2CCCC2C(N)=O)sc1-c1ccnc(C(C)(C)C(F)(F)F)c1
IC50 (second compound 0.0316 µM): > 10000 nM
IC50 (second compound 0.1 µM): > 10000 nM
IC50 (second compound 0.316 µM): > 10000 nM
IC50 (second compound 1 µM): < 31.6 nM
IC50 (second compound 3.16 µM): < 31.6 nM
IC50 (second compound 10 µM): < 31.6 nM
viability, T/C [1]: 88.7%
viability, T/C [2]: 92.7%
viability, T/C [3]: 90.5%
viability, T/C [4]: 95.7%
viability, T/C [5]: 86.2%
viability, T/C [6]: 86%
viability, T/C [7]: 76%
viability, T/C [8]: 74.3%
viability, T/C [9]: 80.2%
viability, T/C [10]: 74.3%
viability, T/C [11]: 78.9%
viability, T/C [12]: 72.1%
viability, T/C [13]: 62.5%
viability, T/C [14]: 53.5%
viability, T/C [15]: 59.5%
viability, T/C [16]: 57.5%
viability, T/C [17]: 58.9%
viability, T/C [18]: 54%
viability, T/C [19]: 45%
viability, T/C [20]: 44.7%
viability, T/C [21]: 47.3%
viability, T/C [22]: 39.8%
viability, T/C [23]: 43.1%
viability, T/C [24]: 41.8%
viability, T/C [25]: 29.4%
viability, T/C [26]: 27.1%
viability, T/C [27]: 32%
viability, T/C [28]: 33.4%
viability, T/C [29]: 30.6%
viability, T/C [30]: 26.7%
viability, T/C [31]: 15.4%
viability, T/C [32]: 14.6%
viability, T/C [33]: 16.2%
viability, T/C [34]: 15.1%
viability, T/C [35]: 14.4%
viability, T/C [36]: 9.85%

Stronger by IC50 (second compound 0.0316 µM), values ahead:

IC50 (second compound 0.0316 µM): 6270 nM
IC50 (second compound 0.1 µM): 307 nM
IC50 (second compound 0.316 µM): 59.9 nM
IC50 (second compound 1 µM): < 31.6 nM
IC50 (second compound 3.16 µM): < 31.6 nM
IC50 (second compound 10 µM): < 31.6 nM
Compound: Cn1nccc1Nc1nccc(-c2ccn(C(CO)c3ccc(Cl)c(F)c3)c(=O)c2)n1 (stereo not given) + Cc1nc(NC(=O)N2CCCC2C(N)=O)sc1-c1ccnc(C(C)(C)C(F)(F)F)c1
viability, T/C [1]: 72.8%
viability, T/C [2]: 72.3%
viability, T/C [3]: 63.3%
viability, T/C [4]: 65.4%
viability, T/C [5]: 55%
viability, T/C [6]: 46.1%
viability, T/C [7]: 64.7%
viability, T/C [8]: 75.7%
viability, T/C [9]: 48.3%
viability, T/C [10]: 52%
viability, T/C [11]: 49.3%
viability, T/C [12]: 48.1%
viability, T/C [13]: 55.4%
viability, T/C [14]: 44.4%
viability, T/C [15]: 43%
viability, T/C [16]: 34.9%
viability, T/C [17]: 38.7%
viability, T/C [18]: 33%
viability, T/C [19]: 41.9%
viability, T/C [20]: 36.8%
viability, T/C [21]: 32.7%
viability, T/C [22]: 30.2%
viability, T/C [23]: 28%
viability, T/C [24]: 23.3%
viability, T/C [25]: 29.8%
viability, T/C [26]: 27.7%
viability, T/C [27]: 23.2%
viability, T/C [28]: 28.3%
viability, T/C [29]: 27%
viability, T/C [30]: 16.1%
viability, T/C [31]: 17.1%
viability, T/C [32]: 12.8%
viability, T/C [33]: 15.8%
viability, T/C [34]: 14.3%
viability, T/C [35]: 17.2%
viability, T/C [36]: 7.87%

IC50 (second compound 0.0316 µM): 96.7 nM
IC50 (second compound 0.1 µM): 77.4 nM
IC50 (second compound 0.316 µM): 32.1 nM
IC50 (second compound 1 µM): < 31.6 nM
IC50 (second compound 3.16 µM): < 31.6 nM
IC50 (second compound 10 µM): < 31.6 nM
Compound: Cn1ncc(Cl)c1-c1cc(C(=O)NC(CN)Cc2cccc(F)c2)sc1Cl (stereo not given) + Cc1nc(NC(=O)N2CCCC2C(N)=O)sc1-c1ccnc(C(C)(C)C(F)(F)F)c1
viability, T/C [1]: 68%
viability, T/C [2]: 49.7%
viability, T/C [3]: 23.7%
viability, T/C [4]: 11.6%
viability, T/C [5]: 9.66%
viability, T/C [6]: 5.52%
viability, T/C [7]: 65.4%
viability, T/C [8]: 45.7%
viability, T/C [9]: 25%
viability, T/C [10]: 13%
viability, T/C [11]: 9.73%
viability, T/C [12]: 6.2%
viability, T/C [13]: 50%
viability, T/C [14]: 37.7%
viability, T/C [15]: 22.5%
viability, T/C [16]: 11.7%
viability, T/C [17]: 9.53%
viability, T/C [18]: 3.13%
viability, T/C [19]: 39.9%
viability, T/C [20]: 35.2%
viability, T/C [21]: 21.6%
viability, T/C [22]: 11.3%
viability, T/C [23]: 8.3%
viability, T/C [24]: 2.53%
viability, T/C [25]: 25.3%
viability, T/C [26]: 22.5%
viability, T/C [27]: 13.9%
viability, T/C [28]: 10%
viability, T/C [29]: 6.18%
viability, T/C [30]: 1.9%
viability, T/C [31]: 15%
viability, T/C [32]: 11.3%
viability, T/C [33]: 7.08%
viability, T/C [34]: 4.6%
viability, T/C [35]: 3.71%
viability, T/C [36]: 1.05%

Reference: PubChem BioAssay AID1963964 (Molecular Pharmacology Branch, DTP, NCI, 2024)
